Assays:
[1] = test system: patients with Alzheimer's disease; conditions: human, in vivo; cited from earlier work
[2] = test system: healthy volunteers; conditions: human, in vivo; cited from earlier work
[3] = test system: patients with schizophrenia; conditions: adjunctive treatment, 6 g/day; cited from earlier work
[4] = test system: humans; conditions: cited from earlier work
[5] = test system: Male NMRI mice; assay: novel object recognition test (learning and memory formation); type: in vivo
Experimental: (§1) Male NMRI mice (Charles River, Germany, 25-35 g) were used in examples 1, 2 and 3. The animals were housed nine per cage in a colony room under constant temperature (20±1° C.) and humidity (50±5%). Animals were allowed to acclimatize for at least one week prior to behavioral testing. The daylight cycle was maintained artificially (lights on from 0600 to 1800 hours) and behavioral experiments were conducted during the light phase. The Ethics Committee for Animal Experiments, Goteborg, Sweden, approved all experimental procedures used in the present study.
There are several learning and memory tasks that are appropriate for study in rodents. One widely used is the novel object recognition test. The test involves exposing the rodent to two identical objects for a brief period of time (the introductory session). […] Furthermore, very similar aspects of memory formation (involving encoding, con solidation and retrieval of information) can be assessed in human using the Brief Visual Memory Task-Revised (BVMT-R). […]
The object exploration time was manually scored from the videotapes. […]
Data are expressed as means and standard errors of the mean (S.E.M.). […]
A discrimination index was calculated for each animal: Tn/(Tf+Tn)*100 […]

[6] = test system: Male NMRI mice; assay: habituation of acoustic startle response (non-associative learning); type: in vivo; conditions: acute 1000 mg/kg intraperitoneally, block 6, versus saline, p<0.05, FIG. 2
Experimental: as §1
The model used to measure non-associative learning was habituation of acoustic startle response. Habituation refers to the decrease in response to repeated presentation of identical stimuli and the model used for this test is also translational in nature. Since habituation is a measure of how the brain filter outs irrelevant stimuli and focus selectively on important stimuli, it is thought to be a prerequisite for other forms of learning and cognitive functions.
Acoustic startle was recorded using a MOPS 3 startle response recording system (see example 1). […]
The first startle pulse response was omitted from statistical analysis since it was too variable to achieve significance. […] Habituation, the change in mean response amplitude over time, was calculated using the formula: […]

[7] = in vivo, cited from earlier work
[8] = test system: Male NMRI mice; assay: prepulse inhibition (PPI) of acoustic startle response model (pre-attentive information processing); type: in vivo; conditions: for increase in capacity to filter information pre-attentively (absolute change in PPI at day 1 compared to matching test): acute administration, day 1, FIG. 1B; for effect on PPI response: day 1 and day 3, prepulse level 9 dB over background noise
From the text: One way to elucidate how substances affect our cognitive function is to measure how the brain processes information. Pre-attentive information processing is thought to be important for selective and efficient processing of sensory information and for coherent cognitive operations, and thus for memory and cognitive functions. Pre-attentive information processing can be assessed by using the prepulse inhibition (PPI) of acoustic startle response model. One major advantage of the PPI model is that it is a translational behavior. […] PPI is the reduction in reflex response to an intense stimulus when this stimulus is immediately preceded (30-500 ms) by a weak prestimulus. The presentation of the prestimulus, although not strong enough to elicit a measurable response by itself, evokes a short lasting sensory gating process in the brain, which is manifested by the attenuated response to the successive intense stimulus. PPI is hypothesized to reflect the ability of the central nervous system to filter out distracting and irrelevant stimuli before it reaches the cortex. An increased, i.e. improved, PPI could result in better inhibitory mechanisms that filter or gate intrinsic and extrinsic stimuli prior to higher order processing. […] Furthermore, PPI and other cognitive functions are regulated by the same cortico-striato-pallido-thalamic circuitry and association between these different cognitive domains has been shown.
as §1
Acoustic startle was recorded using a MOPS 3 startle response recording system (Metod och Produkt Svenska AB, Sweden). The animals were placed in small plexi glass cages (10×5.5×6 cm) that were suspended at the top of a piston. A movement of the animal in the cage caused a displacement of the piston, the acceleration of which was registered by a piezo-electric accelerometer. This signal was sampled and digitized by a microcomputer that also controlled the delivery of acoustic stimuli. Startle amplitude was defined as the maximum signal amplitude occurring 8-30 ms after the startle-eliciting stimulus. Four cages were used simultaneously and each cage was housed in a dimly lit and sound attenuated cabinet (52×42×38 cm). The cages were calibrated for equal sensitivity prior to testing and a mouse was always tested in the same cage at subsequent tests. The acoustic stimuli consisted of white noise, which was delivered by two high-frequency loudspeakers built into the ceiling of the cabinet.
Each test session started with an 8-min adaptation period containing only white background noise at 65 dB (A). Startle pulse was set to 105 dB (A) and prepulse intensities to 3, 9 and 12 dB (A) above background noise. Duration of acoustic stimuli was set to 20 ms for both prepulses and startle pulses and interstimulus interval (ISI) was set to 40 ms. Following the adaptation period the animals were subjected to a series of 5 startle pulse-alone trials that were omitted from the analysis since they only served to accommodate the animals to the sudden stimulus onset. The animals were then subjected to a pseudo-randomized combination of 3 prepulse-alone trials for each prepulse intensity, 45 pulse-alone trials and 15 prepulse+pulse trials for each prepulse intensity. Trials were separated by 5-15 s intervals.
All mice were first subjected to a pre-test to ensure that they expressed basal startle reactivity.

[9] = test system: mice; conditions: pre-attentive information filtering; cited from earlier work

COc1cc2c(cc1OC)C(=O)C(CC1CCN(Cc3ccccc3)CC1)C2 (stereo not shown) [Donezepil]
effect on cognition in patients with Alzheimer's disease [1]: enhance cognition
effect on cognition in healthy volunteers [2]: no or detrimental effects on cognition

NCCCC[C@H](N)C(=O)O [L-lysine]
effect on symptoms in patients with schizophrenia [3]: possibly can improve some symptoms
reported adverse effects in humans ([4]; L-lysine treatment in general): transient gastrointestinal problems in a few patients
adverse effects in long-term studies ([4]; administration up to 2 years): have not revealed any adverse effects
reported adverse effects in short-term human studies ([4]; doses as high as 40 g/day, resolved as the dose was decreased): abdominal cramps and transient diarrhea
time exploring the two similar objects during the introductory session versus saline ([5]; 1000 mg/kg intraperitoneally 30 min before the introductory session): no difference
exploration of the familiar object, recognition session compared with introductory session ([5]; 1000 mg/kg intraperitoneally, 90 min delay, p<0.05, FIG. 3B): significantly less exploration of the familiar object
habituation of the acoustic startle response [6]: improves the brain capacity to filter out irrelevant information
oral bioavailability ([7]; po): very good oral bioavailability
blood-brain barrier penetration [7]: easily penetrates the blood-brain barrier
pulse-alone response (acoustic startle; sedative properties) ([8]; 500-2000 mg/kg): did not affect the pulse-alone response
increase in capacity to filter information pre-attentively (absolute change in PPI at day 1 compared to matching test) ([8]; L-lysine 500 mg/kg intraperitoneally): 28.7%
increase in capacity to filter information pre-attentively (absolute change in PPI at day 1 compared to matching test) ([8]; L-lysine 1000 mg/kg intraperitoneally): 51.3%
increase in capacity to filter information pre-attentively (absolute change in PPI at day 1 compared to matching test) ([8]; L-lysine 2000 mg/kg intraperitoneally): 9.0%
final PPI test at day 9 ([8]; after a 6-day washout period): did not demonstrate any significant effects
effect on PPI response ([8]; doses 500 mg/kg and 1000 mg/kg): improved the PPI response in a dose related manner
effect on PPI response ([8]; highest dose 2000 mg/kg): did not affect PPI significantly
effect of test day on PPI (day 1 versus day 3, repeated administration) ([8]; once daily for three days, 500-2000 mg/kg): no significant effect of test day
effect on cognitive impairments induced by phencyclidine [9]: can restore cognitive impairments

CC12CC3CC(C)(C1)CC(N)(C3)C2 [Memantine]
effect on cognition in patients with Alzheimer's disease [1]: enhance cognition
effect on cognition in healthy volunteers [2]: no or detrimental effects on cognition

Source: US20110237670A1, “IMPROVEMENT OF NORMAL COGNITIVE FUNCTION” (priority 2008, published 2011)
